Measured values reported in ChEMBL document CHEMBL4630901 (2021).
Each block holds one molecule with its values, some of them ahead of it.

How the values were obtained:
[1] = species on record: Homo sapiens; assay: Inhibition of Nicotinic Acetylcholine at compound concentration of 10.0 uM in the Eurofins-Panlabs radioligand binding assay (Eurofins_assay_258590); format: protein-complex assay; conditions: Compound concentration 10.0 uM
[2] = species on record: Oryctolagus cuniculus; assay: Inhibition of Purinergic P2X at 10 µM in the Eurofins-Panlabs radioligand binding assay (Eurofins_assay_268700); format: protein assay; conditions: Compound concentration 10.0 uM
[3] = molecular target: T1, Prostaglandin F2-alpha receptor (Homo sapiens, UniProt P43088); assay: Prostanoid FP Eurofins-Panlabs radioligand binding assay; parameters: ligand concentration 1 nM
[4] = molecular target: Prostacyclin receptor (Homo sapiens) (UniProt P43119); assay: IP (PGI2) Eurofins-Panlabs radioligand binding assay; parameters: ligand concentration 6 nM
[5] = molecular target: T2, Prostaglandin D2 receptor (Homo sapiens) (UniProt Q13258); assay: Prostanoid DP Eurofins-Panlabs radioligand binding assay; parameters: ligand concentration 2 nM
T2 sequence (whole entry): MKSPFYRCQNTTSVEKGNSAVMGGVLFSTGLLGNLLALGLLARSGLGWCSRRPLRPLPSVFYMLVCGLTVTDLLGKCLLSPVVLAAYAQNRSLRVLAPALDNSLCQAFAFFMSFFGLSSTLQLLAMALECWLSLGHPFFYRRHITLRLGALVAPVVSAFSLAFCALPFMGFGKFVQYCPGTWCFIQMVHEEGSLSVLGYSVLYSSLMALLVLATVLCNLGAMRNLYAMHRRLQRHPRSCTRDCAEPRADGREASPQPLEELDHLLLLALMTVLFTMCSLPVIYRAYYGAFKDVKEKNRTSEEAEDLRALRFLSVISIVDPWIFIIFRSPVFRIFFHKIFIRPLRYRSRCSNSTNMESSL

[6] = molecular target: Adenosine receptor A2a (Homo sapiens) (UniProt P29274); conditions: Compound concentration 10.0 uM
[7] = molecular target: Beta-2 adrenergic receptor (Homo sapiens) (UniProt P07550); conditions: Compound concentration 10.0 uM
[8] = molecular target: D(2) dopamine receptor (Homo sapiens) (UniProt P14416); conditions: Compound concentration 10.0 uM
[9] = molecular target: Estrogen receptor (Homo sapiens) (UniProt P03372); conditions: Compound concentration 10.0 uM
[10] = molecular target: T3, Muscarinic acetylcholine receptor M2 (Homo sapiens) (UniProt P08172); conditions: Compound concentration 10.0 uM
T3 sequence (whole entry): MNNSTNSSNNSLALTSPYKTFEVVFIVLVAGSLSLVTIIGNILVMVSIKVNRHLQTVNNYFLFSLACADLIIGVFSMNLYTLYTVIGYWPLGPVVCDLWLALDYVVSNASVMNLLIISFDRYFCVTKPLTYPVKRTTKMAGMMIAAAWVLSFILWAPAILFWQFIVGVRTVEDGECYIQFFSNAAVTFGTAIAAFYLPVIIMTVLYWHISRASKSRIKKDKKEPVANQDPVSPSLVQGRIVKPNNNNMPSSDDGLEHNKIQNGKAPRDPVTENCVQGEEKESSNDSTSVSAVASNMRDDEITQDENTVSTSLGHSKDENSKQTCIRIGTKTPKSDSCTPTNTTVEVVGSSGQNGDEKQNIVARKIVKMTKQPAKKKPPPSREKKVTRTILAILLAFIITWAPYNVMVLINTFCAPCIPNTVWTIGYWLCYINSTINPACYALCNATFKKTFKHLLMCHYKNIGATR

[11] = molecular target: Kappa-type opioid receptor (Homo sapiens) (UniProt P41145); conditions: Compound concentration 10.0 uM
[12] = molecular target: Sodium-dependent noradrenaline transporter (Homo sapiens) (UniProt P23975); conditions: Compound concentration 10.0 uM
[13] = molecular target: GABA-A receptor; anion channel (Rattus norvegicus) (UniProt O09028+P15431+P18506+P18508+P19969+P20236+P23574+P23576+P28471+P28473+P30191+P62813+P63079+P63138+Q91ZM7+Q9ES14); conditions: Compound concentration 10.0 uM
[14] = molecular target: Glutamate receptor 2 (Homo sapiens) (UniProt P42262); conditions: Rattus norvegicus; Compound concentration 10.0 uM
[15] = molecular target: Insulin receptor (Homo sapiens) (UniProt P06213); conditions: Rattus norvegicus; Compound concentration 10.0 uM
[16] = molecular target: T4, Alpha-2C adrenergic receptor (Homo sapiens) (UniProt P18825); conditions: Compound concentration 10.0 uM
T4 sequence (whole entry): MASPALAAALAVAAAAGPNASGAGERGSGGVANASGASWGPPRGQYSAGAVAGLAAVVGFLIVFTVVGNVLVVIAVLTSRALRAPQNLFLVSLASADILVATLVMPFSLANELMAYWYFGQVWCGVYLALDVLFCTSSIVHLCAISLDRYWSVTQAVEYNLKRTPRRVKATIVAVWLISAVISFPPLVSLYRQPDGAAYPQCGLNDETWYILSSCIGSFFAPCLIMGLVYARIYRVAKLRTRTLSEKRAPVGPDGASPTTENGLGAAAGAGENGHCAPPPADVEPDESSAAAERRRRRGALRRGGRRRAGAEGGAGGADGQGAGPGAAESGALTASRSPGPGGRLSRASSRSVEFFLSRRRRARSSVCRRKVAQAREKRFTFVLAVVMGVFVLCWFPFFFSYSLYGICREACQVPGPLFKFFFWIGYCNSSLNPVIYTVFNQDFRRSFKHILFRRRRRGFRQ

[17] = molecular target: Cannabinoid receptor 2 (Homo sapiens) (UniProt P34972); conditions: Compound concentration 10.0 uM
[18] = molecular target: Gamma-aminobutyric acid type B receptor subunit 1 (Homo sapiens) (UniProt Q9UBS5); conditions: Rattus norvegicus; Compound concentration 10.0 uM
[19] = molecular target: Androgen receptor (Homo sapiens) (UniProt P10275); conditions: Compound concentration 10.0 uM
[20] = molecular target: 5-hydroxytryptamine receptor 3A (Homo sapiens, UniProt P46098); assay: GPCRScan assay: inhibition of 5-HT3; parameters: radioligand conc. used [nm] 1.0 – 2.0, parental cells HEKT
[21] = molecular target: Sigma intracellular receptor 2 (Homo sapiens, UniProt Q5BJF2); assay: GPCRScan assay: inhibition of Sigma 2; parameters: radioligand conc. used [nm] 5.0, parental cells HEKT
[22] = molecular target: T1, Prostaglandin F2-alpha receptor; assay: Panlabs binding assay
[23] = molecular target: 5-hydroxytryptamine receptor 1E (Homo sapiens) (UniProt P28566); conditions: Compound concentration 10.0 uM
[24] = Compound concentration 0.001 uM

Chain of Prostacyclin receptor (Homo sapiens) (P43119 whole entry): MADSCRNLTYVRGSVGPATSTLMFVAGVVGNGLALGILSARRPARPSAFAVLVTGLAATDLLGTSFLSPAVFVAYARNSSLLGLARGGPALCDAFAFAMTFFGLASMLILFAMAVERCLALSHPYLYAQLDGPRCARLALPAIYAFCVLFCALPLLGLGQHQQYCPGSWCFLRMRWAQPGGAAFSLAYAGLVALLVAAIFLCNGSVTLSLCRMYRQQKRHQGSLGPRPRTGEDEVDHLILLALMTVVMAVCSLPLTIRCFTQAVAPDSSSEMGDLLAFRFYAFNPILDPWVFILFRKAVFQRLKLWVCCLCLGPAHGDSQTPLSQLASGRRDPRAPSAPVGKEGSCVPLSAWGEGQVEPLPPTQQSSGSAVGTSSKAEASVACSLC
T1 sequence (P43088 whole entry): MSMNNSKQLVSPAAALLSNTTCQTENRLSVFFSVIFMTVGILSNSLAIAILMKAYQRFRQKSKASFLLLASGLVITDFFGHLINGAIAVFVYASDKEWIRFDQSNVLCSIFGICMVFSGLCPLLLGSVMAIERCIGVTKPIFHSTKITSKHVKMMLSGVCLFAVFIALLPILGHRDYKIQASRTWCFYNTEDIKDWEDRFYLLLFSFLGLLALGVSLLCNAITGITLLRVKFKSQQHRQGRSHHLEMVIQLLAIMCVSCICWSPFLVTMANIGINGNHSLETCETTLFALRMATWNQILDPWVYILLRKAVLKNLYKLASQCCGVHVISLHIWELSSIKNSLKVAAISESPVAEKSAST
Chain of 5-hydroxytryptamine receptor 3A (P46098 whole entry): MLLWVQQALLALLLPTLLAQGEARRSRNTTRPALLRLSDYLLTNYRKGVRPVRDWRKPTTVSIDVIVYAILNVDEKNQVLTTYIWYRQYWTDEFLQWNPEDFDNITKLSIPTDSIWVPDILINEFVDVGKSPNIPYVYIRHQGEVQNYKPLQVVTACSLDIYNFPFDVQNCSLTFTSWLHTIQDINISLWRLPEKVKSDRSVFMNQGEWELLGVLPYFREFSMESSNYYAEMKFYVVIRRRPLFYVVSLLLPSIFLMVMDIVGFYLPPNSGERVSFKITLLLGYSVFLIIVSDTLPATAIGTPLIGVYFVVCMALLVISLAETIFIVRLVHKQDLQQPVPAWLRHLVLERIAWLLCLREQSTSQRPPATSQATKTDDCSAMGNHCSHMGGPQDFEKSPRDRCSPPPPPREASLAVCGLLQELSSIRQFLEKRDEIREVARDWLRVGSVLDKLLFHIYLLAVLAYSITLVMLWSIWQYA
Chain of Cannabinoid receptor 2 (Homo sapiens) (P34972 whole entry): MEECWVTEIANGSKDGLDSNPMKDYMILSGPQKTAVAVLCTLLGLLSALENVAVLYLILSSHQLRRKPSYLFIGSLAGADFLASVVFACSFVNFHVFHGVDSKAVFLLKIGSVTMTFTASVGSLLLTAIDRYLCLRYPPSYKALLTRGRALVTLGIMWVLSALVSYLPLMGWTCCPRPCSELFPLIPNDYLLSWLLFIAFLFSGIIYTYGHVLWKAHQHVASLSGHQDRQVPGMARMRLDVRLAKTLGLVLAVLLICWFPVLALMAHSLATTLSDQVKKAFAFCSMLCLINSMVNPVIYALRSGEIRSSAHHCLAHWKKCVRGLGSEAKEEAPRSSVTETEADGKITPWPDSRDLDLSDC
Chain of Beta-2 adrenergic receptor (Homo sapiens) (P07550 whole entry, looked up): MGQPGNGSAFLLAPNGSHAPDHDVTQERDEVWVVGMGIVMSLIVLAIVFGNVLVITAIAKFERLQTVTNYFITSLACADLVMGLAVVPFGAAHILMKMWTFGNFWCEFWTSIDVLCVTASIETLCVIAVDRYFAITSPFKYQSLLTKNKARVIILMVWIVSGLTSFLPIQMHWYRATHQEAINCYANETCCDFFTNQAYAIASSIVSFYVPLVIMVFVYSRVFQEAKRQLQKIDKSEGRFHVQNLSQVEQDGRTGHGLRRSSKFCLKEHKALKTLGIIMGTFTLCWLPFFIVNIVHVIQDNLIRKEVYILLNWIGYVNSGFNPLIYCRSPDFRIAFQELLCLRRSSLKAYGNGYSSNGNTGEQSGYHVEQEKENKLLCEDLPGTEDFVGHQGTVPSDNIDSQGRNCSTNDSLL
Chain of Insulin receptor (Homo sapiens) (P06213 28-758 limits assumed): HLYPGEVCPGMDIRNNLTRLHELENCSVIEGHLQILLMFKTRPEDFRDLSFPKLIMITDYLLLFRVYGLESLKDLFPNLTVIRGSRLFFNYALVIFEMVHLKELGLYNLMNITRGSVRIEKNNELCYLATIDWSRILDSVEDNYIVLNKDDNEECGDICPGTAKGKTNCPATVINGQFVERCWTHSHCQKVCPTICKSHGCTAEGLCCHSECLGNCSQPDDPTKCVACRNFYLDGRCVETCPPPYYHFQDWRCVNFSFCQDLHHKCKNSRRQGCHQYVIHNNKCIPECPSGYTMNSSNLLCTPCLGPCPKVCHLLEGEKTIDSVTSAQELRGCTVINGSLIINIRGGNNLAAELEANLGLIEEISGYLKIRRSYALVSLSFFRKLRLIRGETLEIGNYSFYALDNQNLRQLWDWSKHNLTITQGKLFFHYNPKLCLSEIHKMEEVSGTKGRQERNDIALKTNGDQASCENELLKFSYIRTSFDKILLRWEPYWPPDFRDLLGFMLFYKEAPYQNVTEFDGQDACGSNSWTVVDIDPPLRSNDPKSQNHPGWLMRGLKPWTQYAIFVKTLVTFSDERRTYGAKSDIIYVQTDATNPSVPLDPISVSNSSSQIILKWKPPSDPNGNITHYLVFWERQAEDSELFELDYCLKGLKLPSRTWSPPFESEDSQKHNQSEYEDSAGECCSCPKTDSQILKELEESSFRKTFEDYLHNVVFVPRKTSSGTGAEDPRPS
Chain of Insulin receptor (Homo sapiens) (P06213 763-1382 limits assumed): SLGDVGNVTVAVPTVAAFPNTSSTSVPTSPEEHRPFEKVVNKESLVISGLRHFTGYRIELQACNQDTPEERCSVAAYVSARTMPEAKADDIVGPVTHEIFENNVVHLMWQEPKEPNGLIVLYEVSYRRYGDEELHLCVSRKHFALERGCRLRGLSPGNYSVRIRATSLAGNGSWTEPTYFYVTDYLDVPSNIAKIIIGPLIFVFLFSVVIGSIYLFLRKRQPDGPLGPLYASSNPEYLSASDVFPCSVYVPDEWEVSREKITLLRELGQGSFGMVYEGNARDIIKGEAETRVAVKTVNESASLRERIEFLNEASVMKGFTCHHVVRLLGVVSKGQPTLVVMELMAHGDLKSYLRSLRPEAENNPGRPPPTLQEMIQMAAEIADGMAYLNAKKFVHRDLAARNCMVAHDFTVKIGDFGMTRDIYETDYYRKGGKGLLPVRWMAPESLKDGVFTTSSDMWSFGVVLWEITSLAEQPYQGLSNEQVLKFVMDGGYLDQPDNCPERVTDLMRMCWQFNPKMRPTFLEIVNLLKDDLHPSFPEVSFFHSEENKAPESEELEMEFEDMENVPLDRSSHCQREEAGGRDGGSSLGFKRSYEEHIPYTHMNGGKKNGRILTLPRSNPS
Chain of Androgen receptor (Homo sapiens) (P10275 whole entry): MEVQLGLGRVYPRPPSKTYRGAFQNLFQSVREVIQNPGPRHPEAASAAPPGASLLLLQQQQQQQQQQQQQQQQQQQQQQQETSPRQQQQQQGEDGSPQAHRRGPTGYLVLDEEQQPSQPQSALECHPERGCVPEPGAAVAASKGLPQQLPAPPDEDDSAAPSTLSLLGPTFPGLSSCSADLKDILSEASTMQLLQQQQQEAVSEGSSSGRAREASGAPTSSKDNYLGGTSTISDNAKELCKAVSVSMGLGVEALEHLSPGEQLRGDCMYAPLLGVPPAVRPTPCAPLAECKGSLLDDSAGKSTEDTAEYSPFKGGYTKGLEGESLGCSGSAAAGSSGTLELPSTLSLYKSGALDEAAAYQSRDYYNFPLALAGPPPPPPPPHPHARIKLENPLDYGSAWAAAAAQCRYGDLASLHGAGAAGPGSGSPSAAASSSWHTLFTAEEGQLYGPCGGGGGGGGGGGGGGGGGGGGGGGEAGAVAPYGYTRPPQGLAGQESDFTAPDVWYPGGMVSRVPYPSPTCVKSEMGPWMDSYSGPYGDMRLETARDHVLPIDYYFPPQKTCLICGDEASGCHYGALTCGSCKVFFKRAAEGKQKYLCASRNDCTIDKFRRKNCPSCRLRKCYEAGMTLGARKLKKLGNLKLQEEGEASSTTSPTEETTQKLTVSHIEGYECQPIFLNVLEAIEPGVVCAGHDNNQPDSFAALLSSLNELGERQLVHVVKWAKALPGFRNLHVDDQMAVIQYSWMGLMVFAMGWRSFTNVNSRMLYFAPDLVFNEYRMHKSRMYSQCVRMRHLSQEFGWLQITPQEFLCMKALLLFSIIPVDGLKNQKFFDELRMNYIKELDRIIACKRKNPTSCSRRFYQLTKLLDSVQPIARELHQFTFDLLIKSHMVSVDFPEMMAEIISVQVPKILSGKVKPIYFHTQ
Chain of D(2) dopamine receptor (Homo sapiens) (P14416 whole entry): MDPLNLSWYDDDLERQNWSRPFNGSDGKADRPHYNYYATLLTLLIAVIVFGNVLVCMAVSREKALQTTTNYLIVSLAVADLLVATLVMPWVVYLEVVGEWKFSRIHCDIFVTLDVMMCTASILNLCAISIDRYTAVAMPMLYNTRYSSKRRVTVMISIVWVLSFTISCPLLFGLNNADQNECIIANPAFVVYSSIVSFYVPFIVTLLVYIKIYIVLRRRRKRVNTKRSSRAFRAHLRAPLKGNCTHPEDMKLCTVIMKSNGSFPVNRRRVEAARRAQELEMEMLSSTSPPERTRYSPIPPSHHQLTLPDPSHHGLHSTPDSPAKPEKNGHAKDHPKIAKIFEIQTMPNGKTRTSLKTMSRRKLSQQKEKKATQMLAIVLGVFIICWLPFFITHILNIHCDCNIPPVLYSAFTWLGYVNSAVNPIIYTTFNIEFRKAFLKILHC
Chain of Sigma intracellular receptor 2 (Q5BJF2 whole entry): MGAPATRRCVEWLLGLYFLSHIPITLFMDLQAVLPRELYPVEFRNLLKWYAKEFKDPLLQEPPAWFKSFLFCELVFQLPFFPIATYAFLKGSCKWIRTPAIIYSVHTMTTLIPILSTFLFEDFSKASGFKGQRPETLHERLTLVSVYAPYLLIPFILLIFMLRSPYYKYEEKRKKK

SMILES: Cc1c(N2CCCC2)nc2ccc(Br)cc2c1C(=O)NC[C@H](CCC(=O)O)c1ccccc1Cl [BAY-6672]
- inhibition [1]: 3%
- inhibition [2]: 25%
- inhibition [3, 24]: 7%
- inhibition ([3]; Compound concentration 0.01 uM): 35%
- inhibition ([3]; Compound concentration 0.1 uM): 79%
- inhibition ([3]; Compound concentration 1.0 uM): 94%
- inhibition ([3]; Compound concentration 10.0 uM): 97%
- inhibition [4, 24]: 3%
- inhibition ([4]; Compound concentration 0.01 uM): -2%
- inhibition ([4]; Compound concentration 0.1 uM): -3%
- inhibition ([4]; Compound concentration 1.0 uM): -0%
- inhibition ([4]; Compound concentration 10.0 uM): 20%
- inhibition [5, 24]: 6%
- inhibition ([5]; Compound concentration 0.01 uM): 6%
- inhibition ([5]; Compound concentration 0.1 uM): 18%
- inhibition ([5]; Compound concentration 1.0 uM): 24%
- inhibition ([5]; Compound concentration 10.0 uM): 42%
- inhibition [6]: 2%
- inhibition [7]: 18%
- inhibition [8]: 6%
- inhibition [9]: 1%
- inhibition [10]: 3%
- inhibition [11]: 15%
- inhibition [12]: 32%
- inhibition [13]: 26%
- inhibition [14]: -3%
- inhibition [15]: 11%
- inhibition [16]: 6%
- inhibition [17]: 13%
- inhibition [18]: -4%
- inhibition [19]: 3%

- Ki ([20]; read-out: Ki): 585 nM
- Ki ([20]; read-out: pKi (converted)): 537 nM
- Ki [21]: 1100 nM
- IC50 [22]: > 10000 nM (not active)
- inhibition [23]: 18.3%
SMILES: Cc1c(N2CCNCC2)nc2ccc(Br)cc2c1C(=O)NC[C@H](CCC(=O)O)c1ccccc1Cl [BAY-403]
